The test system of data set [1] is Mus musculus. The data set is described as follows: Inhibition of methacholine-induced bronchoconstriction in intranasally single dosed conscious BALB/c mouse assessed by measuring enhanced pause at 5 ug after 5 hrs by barometric plethysmography relative to control. Type of data set: functional.
The target of data set [2] is T1, Muscarinic acetylcholine receptor M3 (Homo sapiens, UniProt P20309). Description: Antagonist activity at cloned muscarinic M3 receptor expressed in CHO cells assessed as acetylcholine-induced change in cytosolic calcium concentration by FLIPR assay. Conditions: read-out: pA2 (converted). Type of data set: functional, cell-based.
Target sequence in this assay (P20309 whole entry): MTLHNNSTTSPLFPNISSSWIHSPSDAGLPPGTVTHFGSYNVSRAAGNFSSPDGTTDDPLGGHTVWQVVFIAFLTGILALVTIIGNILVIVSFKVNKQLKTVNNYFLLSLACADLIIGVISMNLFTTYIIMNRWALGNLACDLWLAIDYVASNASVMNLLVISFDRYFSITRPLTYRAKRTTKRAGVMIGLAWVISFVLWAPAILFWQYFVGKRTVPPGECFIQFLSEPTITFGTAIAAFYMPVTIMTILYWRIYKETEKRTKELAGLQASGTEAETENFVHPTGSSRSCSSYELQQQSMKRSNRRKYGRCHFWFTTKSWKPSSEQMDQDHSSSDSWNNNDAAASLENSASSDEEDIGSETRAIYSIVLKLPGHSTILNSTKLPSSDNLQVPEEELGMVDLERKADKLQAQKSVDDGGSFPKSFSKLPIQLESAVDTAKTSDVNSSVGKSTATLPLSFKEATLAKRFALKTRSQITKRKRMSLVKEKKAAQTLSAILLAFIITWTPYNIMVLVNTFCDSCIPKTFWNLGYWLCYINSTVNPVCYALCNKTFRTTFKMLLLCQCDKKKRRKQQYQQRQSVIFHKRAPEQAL
For data set [3], the system named is Mus musculus. Description: Inhibition of methacholine-induced bronchoconstriction in intranasally single dosed conscious BALB/c mouse assessed by measuring enhanced pause at 5 ug after 15 mins by barometric plethysmography relative to control. Type of data set: functional.
The target of data set [4] is T2, Muscarinic acetylcholine receptor M2 (Homo sapiens, UniProt P08172).
T2 sequence (P08172 whole entry): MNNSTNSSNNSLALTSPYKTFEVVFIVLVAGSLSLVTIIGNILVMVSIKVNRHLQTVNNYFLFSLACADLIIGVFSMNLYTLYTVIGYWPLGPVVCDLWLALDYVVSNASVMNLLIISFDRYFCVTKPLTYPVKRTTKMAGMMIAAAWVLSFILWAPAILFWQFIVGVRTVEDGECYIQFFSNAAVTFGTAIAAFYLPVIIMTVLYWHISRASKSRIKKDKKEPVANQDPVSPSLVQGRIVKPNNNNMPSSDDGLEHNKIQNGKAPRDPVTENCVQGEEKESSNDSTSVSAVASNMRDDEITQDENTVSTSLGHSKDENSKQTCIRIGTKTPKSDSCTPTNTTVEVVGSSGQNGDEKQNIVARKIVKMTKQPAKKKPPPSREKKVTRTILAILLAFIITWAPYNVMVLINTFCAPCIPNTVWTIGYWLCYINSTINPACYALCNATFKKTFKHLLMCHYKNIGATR
Description: Antagonist activity at cloned muscarinic M2 receptor-Gqi5 chimeric protein expressed in CHO cells assessed as acetylcholine-induced change in cytosolic calcium concentration by FLIPR assay. The settings on record: read-out: pA2 (converted). Type of data set: functional, cell-based.

The target of data set [5] is T3, Muscarinic acetylcholine receptor M1 (Homo sapiens, UniProt P11229).
T3 sequence (P11229 whole entry): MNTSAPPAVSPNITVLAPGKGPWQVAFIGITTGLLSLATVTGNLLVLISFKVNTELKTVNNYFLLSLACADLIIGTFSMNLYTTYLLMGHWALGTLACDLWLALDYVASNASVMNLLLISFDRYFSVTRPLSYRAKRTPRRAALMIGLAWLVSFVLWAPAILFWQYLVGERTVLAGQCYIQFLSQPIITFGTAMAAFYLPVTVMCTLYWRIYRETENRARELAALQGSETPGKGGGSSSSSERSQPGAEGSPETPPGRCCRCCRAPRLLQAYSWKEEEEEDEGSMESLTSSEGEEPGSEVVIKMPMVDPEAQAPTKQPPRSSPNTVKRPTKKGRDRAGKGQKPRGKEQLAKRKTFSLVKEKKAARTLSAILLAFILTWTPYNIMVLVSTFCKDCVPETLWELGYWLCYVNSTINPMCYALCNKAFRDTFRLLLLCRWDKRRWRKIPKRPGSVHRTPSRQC
Description: Antagonist activity at cloned muscarinic M1 receptor expressed in CHO cells assessed as acetylcholine-induced change in cytosolic calcium concentration by FLIPR assay. The settings on record: read-out: pA2 (converted). Type of data set: functional, cell-based.

Data set [6] concerns the target Muscarinic acetylcholine receptors; M2 & M3 (Homo sapiens) (UniProt P20309+P08172). Description: Selectivity for human cloned muscarinic M3 receptor over human cloned muscarinic M2 receptor.
Data set [7] deals with Muscarinic acetylcholine receptor M1 and M3 (Homo sapiens) (UniProt P20309+P11229). Description: Selectivity for human cloned muscarinic M3 receptor over human cloned muscarinic M1 receptor.
Data set [8] in a line: Inhibition of alpha adrenergic receptor at 10 uM.
For data set [9], the system named is Mus musculus. The data set is described as follows: Inhibition of methacholine-induced bronchoconstriction in intranasally single dosed conscious BALB/c mouse assessed by measuring enhanced pause at 5 ug after 72 hrs by barometric plethysmography relative to control. It is filed as functional.
Data set [10] can be described thus: Inhibition of serotonin receptor at 10 uM.
A short description of data set [11]: Permeability across artificial phospholipid membrane. Type of data set: ADME. Conditions: not told; read-out: permeability.
The target of a further data set is Cytochrome P450 2D6 (Homo sapiens, UniProt P10635). The data set is described as follows: Inhibition of CYP2D6. It is filed as ADME.
The next data set deals with Cytochrome P450 2C9 (Homo sapiens, UniProt P11712). The data set is described as follows: Inhibition of CYP2C9. Type of data set: ADME.
Data set [12] deals with Mus musculus. Description: Inhibition of methacholine-induced bronchoconstriction in intranasally single dosed conscious BALB/c mouse assessed by measuring enhanced pause at 5 ug after 24 hrs by barometric plethysmography relative to control. Type of data set: functional.
The target in the next data set is Cytochrome P450 2C19 (Homo sapiens, UniProt P33261). The data set is described as follows: Inhibition of CYP2C19. It is filed as ADME.
Data set [13] deals with Mus musculus. Description: Inhibition of methacholine-induced bronchoconstriction in intranasally single dosed conscious BALB/c mouse assessed by measuring enhanced pause at 5 ug after 48 hrs by barometric plethysmography relative to control. It is filed as functional.
The target in a further data set is T4, Cytochrome P450 1A2 (Homo sapiens, UniProt P05177).
T4 sequence (P05177 whole entry): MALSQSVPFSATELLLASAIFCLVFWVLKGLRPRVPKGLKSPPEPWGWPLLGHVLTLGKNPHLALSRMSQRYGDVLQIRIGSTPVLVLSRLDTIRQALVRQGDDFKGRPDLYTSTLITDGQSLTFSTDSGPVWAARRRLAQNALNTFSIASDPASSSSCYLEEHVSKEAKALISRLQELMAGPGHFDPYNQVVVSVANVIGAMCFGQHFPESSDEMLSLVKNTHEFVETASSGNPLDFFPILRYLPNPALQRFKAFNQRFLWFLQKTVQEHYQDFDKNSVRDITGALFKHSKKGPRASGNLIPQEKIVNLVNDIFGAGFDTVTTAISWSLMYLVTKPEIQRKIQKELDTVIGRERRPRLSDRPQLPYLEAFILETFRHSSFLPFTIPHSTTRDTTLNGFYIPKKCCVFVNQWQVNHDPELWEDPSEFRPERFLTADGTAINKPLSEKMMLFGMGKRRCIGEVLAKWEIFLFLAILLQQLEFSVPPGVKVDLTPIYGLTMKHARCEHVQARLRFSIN
Description: Inhibition of CYP1A2. Type of data set: ADME.

Data set [14] in a line: Aqueous solubility of the compound. Type of data set: physicochemical. Conditions: buffer.
For another data set, the target named is Cytochrome P450 3A4 (Homo sapiens, UniProt P08684). Description: Inhibition of CYP3A4. Type of data set: ADME.
The nature of data set [15]: Inhibition of opioid receptor at 10 uM.
Data set [16] deals with T1, Muscarinic acetylcholine receptor M3. Description: Displacement of [3H]N-methyl Scopolamine from human cloned muscarinic M3 receptor expressed in CHO cells by scintillation proximity assay. Type of data set: cell-based. Background: In a radioligand displacement assay an active substance lowers the binding of a labelled ligand.
Target sequence in this assay (P20309 whole entry): as the sequence (P20309 whole entry) above
For data set [17] the target is unchanged. The settings on record: CHO.
Target sequence in this assay (P20309 whole entry, looked up): as the sequence (P20309 whole entry) above
Description: Antagonist activity at cloned muscarinic M3 receptor expressed in CHO cells assessed as acetylcholine-induced change in cytosolic calcium concentration pretreated for 30 mins by FLIPR assay
For data set [18], the target named is Voltage-gated inwardly rectifying potassium channel KCNH2 (Homo sapiens, UniProt Q12809). Description: Inhibition of human ERG.
The target in data set [19] is T1, Muscarinic acetylcholine receptor M3. The data set is described as follows: Inhibition of human cloned muscarinic M3 receptor expressed in CHO cells by FLIPR assay. It is filed as cell-based.
Target sequence in this assay (P20309 whole entry): as the sequence (P20309 whole entry) above
For data set [20], the target named is T3, Muscarinic acetylcholine receptor M1. The data set is described as follows: Inhibition of human cloned muscarinic M1 expressed in CHO cells by FLIPR assay. Type of data set: cell-based.
Data set [21] addresses T2, Muscarinic acetylcholine receptor M2. Description: Inhibition of human cloned muscarinic M2 receptor-Gqi5 chimeric protein expressed in CHO cells by FLIPR assay. It is filed as cell-based.

In brackets after ≈: the same amount, converted by molar mass. Activity calls are given as the source filed them. The rule behind the calls is not given here.

Chain of Muscarinic acetylcholine receptor M1 and M3 (Homo sapiens) (P20309 whole entry, looked up, one chain of several): as the sequence (P20309 whole entry) above
Chain of Muscarinic acetylcholine receptors; M2 & M3 (Homo sapiens) (P20309 whole entry, looked up, one chain of several): as the sequence (P20309 whole entry) above
Chain of Cytochrome P450 2D6 (P10635 whole entry): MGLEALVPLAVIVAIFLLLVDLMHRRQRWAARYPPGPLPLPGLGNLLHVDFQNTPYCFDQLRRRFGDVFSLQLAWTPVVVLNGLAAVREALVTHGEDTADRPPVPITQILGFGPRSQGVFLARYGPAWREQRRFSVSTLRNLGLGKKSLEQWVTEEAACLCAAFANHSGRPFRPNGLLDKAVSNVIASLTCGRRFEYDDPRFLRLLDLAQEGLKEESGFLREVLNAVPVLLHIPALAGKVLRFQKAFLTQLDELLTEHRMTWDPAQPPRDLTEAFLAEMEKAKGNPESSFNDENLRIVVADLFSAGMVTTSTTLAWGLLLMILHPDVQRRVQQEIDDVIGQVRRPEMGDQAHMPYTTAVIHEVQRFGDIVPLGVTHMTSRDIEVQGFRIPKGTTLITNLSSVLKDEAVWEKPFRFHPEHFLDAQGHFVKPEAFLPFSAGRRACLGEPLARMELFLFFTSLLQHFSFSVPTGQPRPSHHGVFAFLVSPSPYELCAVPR
Chain of Voltage-gated inwardly rectifying potassium channel KCNH2 (Q12809 whole entry): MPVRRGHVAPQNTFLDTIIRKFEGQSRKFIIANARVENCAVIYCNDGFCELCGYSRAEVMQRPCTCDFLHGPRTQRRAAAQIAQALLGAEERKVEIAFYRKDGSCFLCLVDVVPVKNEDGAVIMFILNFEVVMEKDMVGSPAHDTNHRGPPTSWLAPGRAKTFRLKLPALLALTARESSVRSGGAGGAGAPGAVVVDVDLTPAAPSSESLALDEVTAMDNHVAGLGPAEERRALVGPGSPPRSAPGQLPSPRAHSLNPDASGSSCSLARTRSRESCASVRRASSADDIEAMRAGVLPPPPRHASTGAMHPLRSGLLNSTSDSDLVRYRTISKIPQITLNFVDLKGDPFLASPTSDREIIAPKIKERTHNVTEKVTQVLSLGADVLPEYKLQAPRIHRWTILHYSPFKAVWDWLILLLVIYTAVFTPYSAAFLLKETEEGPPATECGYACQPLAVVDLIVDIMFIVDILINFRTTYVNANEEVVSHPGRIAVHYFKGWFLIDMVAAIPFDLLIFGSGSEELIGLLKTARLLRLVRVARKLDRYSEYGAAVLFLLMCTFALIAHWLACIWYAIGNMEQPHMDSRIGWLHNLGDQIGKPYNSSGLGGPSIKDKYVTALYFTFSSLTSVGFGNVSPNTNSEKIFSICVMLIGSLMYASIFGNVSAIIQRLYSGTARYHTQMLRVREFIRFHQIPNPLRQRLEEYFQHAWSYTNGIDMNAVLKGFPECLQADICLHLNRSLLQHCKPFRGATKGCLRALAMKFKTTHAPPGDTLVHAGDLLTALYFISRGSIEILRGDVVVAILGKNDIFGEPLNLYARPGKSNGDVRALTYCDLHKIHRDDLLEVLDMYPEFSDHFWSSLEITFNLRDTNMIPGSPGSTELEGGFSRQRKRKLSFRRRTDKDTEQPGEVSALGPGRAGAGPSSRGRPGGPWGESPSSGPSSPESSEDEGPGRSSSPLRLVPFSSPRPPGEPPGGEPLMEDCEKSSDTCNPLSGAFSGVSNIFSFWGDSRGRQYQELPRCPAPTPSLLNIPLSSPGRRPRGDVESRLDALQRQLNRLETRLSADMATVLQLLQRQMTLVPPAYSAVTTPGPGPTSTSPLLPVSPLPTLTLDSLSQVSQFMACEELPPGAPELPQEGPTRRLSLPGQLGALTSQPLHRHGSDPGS
Chain of Cytochrome P450 2C9 (P11712 whole entry): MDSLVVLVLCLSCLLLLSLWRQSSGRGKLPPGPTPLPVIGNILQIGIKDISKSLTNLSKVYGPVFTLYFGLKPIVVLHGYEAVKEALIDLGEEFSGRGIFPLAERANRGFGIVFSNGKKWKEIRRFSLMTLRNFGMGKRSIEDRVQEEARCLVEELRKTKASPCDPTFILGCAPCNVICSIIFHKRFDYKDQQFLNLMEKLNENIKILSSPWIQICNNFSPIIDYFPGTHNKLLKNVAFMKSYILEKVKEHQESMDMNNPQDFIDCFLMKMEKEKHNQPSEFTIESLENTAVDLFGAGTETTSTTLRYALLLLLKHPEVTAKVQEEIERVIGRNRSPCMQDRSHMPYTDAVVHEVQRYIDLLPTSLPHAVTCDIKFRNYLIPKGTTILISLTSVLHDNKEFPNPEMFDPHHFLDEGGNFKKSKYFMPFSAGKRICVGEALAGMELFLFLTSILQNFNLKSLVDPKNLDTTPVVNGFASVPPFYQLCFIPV
Chain of Cytochrome P450 3A4 (P08684 whole entry): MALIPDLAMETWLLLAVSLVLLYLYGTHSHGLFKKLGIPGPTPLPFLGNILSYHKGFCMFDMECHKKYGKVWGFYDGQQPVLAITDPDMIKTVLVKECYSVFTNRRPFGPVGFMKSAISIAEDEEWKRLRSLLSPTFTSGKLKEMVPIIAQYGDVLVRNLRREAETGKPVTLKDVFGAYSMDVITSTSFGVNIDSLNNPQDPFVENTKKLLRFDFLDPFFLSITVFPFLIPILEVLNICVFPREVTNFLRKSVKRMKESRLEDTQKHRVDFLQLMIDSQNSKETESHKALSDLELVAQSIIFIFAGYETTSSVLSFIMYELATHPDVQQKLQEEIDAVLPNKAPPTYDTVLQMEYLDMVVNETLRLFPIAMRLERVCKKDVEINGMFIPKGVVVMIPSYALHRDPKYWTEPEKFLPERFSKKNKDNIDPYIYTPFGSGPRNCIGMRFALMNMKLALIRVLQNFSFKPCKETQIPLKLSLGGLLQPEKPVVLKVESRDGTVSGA
Chain of Cytochrome P450 2C19 (P33261 whole entry): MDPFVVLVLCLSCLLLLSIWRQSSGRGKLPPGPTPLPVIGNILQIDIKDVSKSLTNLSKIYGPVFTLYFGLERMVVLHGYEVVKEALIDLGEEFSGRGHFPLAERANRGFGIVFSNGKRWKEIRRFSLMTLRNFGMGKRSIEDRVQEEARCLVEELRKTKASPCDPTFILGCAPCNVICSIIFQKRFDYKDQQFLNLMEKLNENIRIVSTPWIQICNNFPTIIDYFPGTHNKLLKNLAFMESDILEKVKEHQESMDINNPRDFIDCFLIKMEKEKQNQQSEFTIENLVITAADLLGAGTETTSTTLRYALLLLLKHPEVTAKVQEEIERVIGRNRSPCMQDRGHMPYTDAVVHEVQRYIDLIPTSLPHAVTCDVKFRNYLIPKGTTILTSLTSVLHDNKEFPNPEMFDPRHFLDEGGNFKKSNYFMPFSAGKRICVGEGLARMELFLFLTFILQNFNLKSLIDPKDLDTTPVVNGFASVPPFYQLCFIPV

As for `CCC(=O)c1cccc(C(=O)NCc2ccc(F)c(-c3cccc(CN4CCN[C@@H](C)C4)c3)c2)c1`, in the data set on Mus musculus [1], the “inhibition (INH)” value came to 20%. In addition, the Kb is 0.0501 nM in [2], 25.1 nM in data set [4] and 1 nM in [5]. In the data set with Mus musculus [3], the outcome was Active.
As for `C[C@H]1CN(Cc2cccc(-c3cc(CNC(=O)c4cccc(C#N)c4)ccc3F)c2)CCN1`, the Kb in data set [2] is 0.251 nM; in [4] it was 316 nM; in data set [5], 7.94 nM.
`CC(=O)c1cccc(C(=O)NCc2ccc(F)c(-c3cccc(CN4CCN[C@@H](C)C4)c3)c2)c1`: the Ratio turned out to be 2000 in data set [6] and 50 in data set [7]. For the same molecule, the “inhibition (INH)” value with Mus musculus [1] came to 45%. Besides, the Kb in data set [2] is 0.0501 nM; in [4], 100 nM; in data set [5], 2.51 nM. Besides, in the data set on Mus musculus [3], the result was Active.
Turning to `C[C@H]1CN(Cc2cccc(-c3cc(CNC(=O)c4cccc(CC5CCNCC5)c4)ccc3F)c2)CCN1`, the Ratio was 500 in data set [6] and 20 in [7]. In addition, the inhibition in data set [8], in data set [10] and in data set [15] was 70% each time. In addition, the “inhibition (INH)” value in the data set on Mus musculus [1] is recorded as 94%; in the data set on Mus musculus [9] it was 25%; in the data set with Mus musculus [3], 96%; in the data set with Mus musculus [12], 40%; with Mus musculus [13], 25%. Also, the Kb was 0.01 nM in [2], 5.01 nM in [4] and 2.51 nM in data set [5]. The Papp in data set [11] is less than 0.3 ×10⁻⁶ cm/s. In addition, the IC50 (commonly the point on the concentration scale where inhibition reaches its midpoint) against Cytochrome P450 2D6 was greater than 10 µM; against Cytochrome P450 2C9, greater than 10 µM; on Cytochrome P450 2C19 it was greater than 10 µM; at Cytochrome P450 1A2, greater than 10 µM; against Cytochrome P450 3A4, greater than 10 µM; in data set [18], 10 µM. The concentration in solution in data set [14] (solubility) was 200 µM (≈ 103 µg/mL). Also, the affinity in data set [16], expressed as Ki, was 0.0316 nM. In addition, in [17], the pKb (usually the Kb on a negative log10 scale, so that one unit is a factor of ten) came to 10.5.
Take `C[C@H]1CN(Cc2cccc(-c3cc(CNC(=O)c4cccc(CN5CCNCC5)c4)ccc3F)c2)CCN1`: the Ratio came to 400 in [6] and 6 in [7]. Further, the Kb was 0.158 nM in data set [2], 63.1 nM in data set [4] and 1 nM in data set [5].
For the molecule `O=C(NCc1cccc(-c2cccc(CN3CCNCC3)c2)c1)c1ccc2c(c1)OCO2`, the values for the Ratio in data set [6] and in data set [7] were 100 and 5, respectively. Moreover, the results for the IC50 in data set [19], in [20] and in [21] were 31.6 nM, 158 nM and greater than 3.16 µM, respectively.
For `C[C@H]1CN(Cc2cccc(-c3cc(CNC(=O)c4cccc(CN5CC[N+](C)(C)CC5)c4)ccc3F)c2)CCN1.O=C([O-])C(F)(F)F`, the Ratio in [6] is 80. Also, the “inhibition (INH)” value in the data set with Mus musculus [1] is 85%; with Mus musculus [3], 95%. The Kb in [4] was 12.6 nM; in data set [5], 2 nM. Also, the outcome in the data set on Mus musculus [12] was inactive.
